Assay results taken from patent US7166609B2, “Pyrimidine-4,6-dicarboxylic acid diamides for selectively inhibiting collagenases” (Sanofi-Aventis Deutschland GmbH, priority 2002, dated 2007).
Like-named read-outs stand apart in the source and are kept apart here.

Target: T1, catalytic domain of human collagenase 3 (MMP-13) (Homo sapiens, UniProt P45452)
T1 construct: Determining the enzyme activity of the catalytic domain of human collagenase 3 (MMP-13); purchased INVITEK, Berlin 30 100 803
Test: Enzyme activity of the catalytic domain of human collagenase 3 (MMP-13), fluorogenic substrate
Format: biochemical
Description: Determining the enzyme activity of the catalytic domain of human collagenase 3 (MMP-13).
Activating the proenzyme:
2 parts by volume of proenzyme are incubated with 1 part by volume of APMA solution at 37° C. for 1.5 hours. The APMA solution is prepared from a 10 mmol/L solution of p-aminophenylmercuric acetate in 0.1 mmol/L NaOH by diluting with 3 parts by volume of tris/HCl buffer, pH 7.5 (see below). The pH is adjusted to between 7.0 and 7.5 by adding 1 mmol/L HCl. After the enzyme has been activated, it is diluted to a concentration of 1.67 μg/ml using the tris/HCl buffer.
In order to measure the enzyme activity, 10 μL of enzyme solution are incubated for 15 minutes with 10 μL of a 3% (v/v) buffered solution of dimethyl sulfoxide (reaction 1). In order to measure the enzyme inhibitor activity, 10 μL of enzyme solution are incubated with 10 μL of a 3% (v/v) buffered solution of dimethyl sulfoxide containing the enzyme inhibitor (reaction 2).
In the case of both reaction 1 and reaction 2, the enzyme reaction is monitored by fluorescence spectroscopy (328 nm (extinction)/393 nm (emission)) after adding 10 μL of a 3% (v/v) aqueous solution of dimethyl sulfoxide containing 0.75 mmol of the substrate/L.
The enzyme activity is depicted as increase in extinction/minute.
The effect of the inhibitor is calculated as a percentage inhibition using the following formula: % inhibition=100−[(increase in extinction/minute in reaction 2)/(increase in extinction/minute in reaction 1)×100].
The IC50, i.e. the inhibitor concentration which is required for inhibiting the enzyme activity by 50%, is determined graphically by plotting the percentage inhibitions at different inhibitor concentrations.
The buffer solution contains 0.05% Brij (Sigma, Deisenhofen, Germany) and 0.1 mol of tris/HCl/L, 0.1 mol of NaCl/L and 0.01 mol of CaCl2/L (pH=7.5). The enzyme solution contains 1.67 μg of the enzyme domain/mL.
The substrate solution contains 0.75 mmol/L of the fluorogenic substrate (7-methoxycoumarin-4-yl)acetyl-Pro-Leu-Gly-Leu-3-(2′,4′-dinitrophenyl)-L-2,3-diaminopropionyl-Ala-Arg-NH2 (Bachem, Heidelberg, Germany).

[1] = catalytic domain, activated proenzyme, pH 7.5, read-out: IC50 MMP13

With `CS(=O)(=O)NC(=O)Nc1ccc(CNC(=O)c2cc(C(=O)NCc3ccc4c(c3)CCO4)ncn2)cc1` [Example 84] the IC50 [1] was 3.2 nM.

Work on `O=C(NCCO)c1ccc(CNC(=O)c2cc(C(=O)NCc3ccc4c(c3)CCO4)ncn2)cc1` [Example 75a] yielded an IC50 [1] of 34 nM.

With `COc1cccc(CNC(=O)c2cc(C(=O)NCc3ccc(NC(=O)NC(=O)C(C)C)cc3)ncn2)c1` [Example 127] the IC50 [1] was 3.3 nM.

In the case of `Cc1cc(CNC(=O)c2cc(C(=O)NCc3ccc4c(c3)OCCN4C)ncn2)ccc1F` [Example 112], the IC50 [1] is reported as 45 nM.

`O=C(NCc1ccncc1)c1ccc(CNC(=O)c2cc(C(=O)NCc3ccc4c(c3)CCO4)ncn2)cc1` [Example 82] gave an IC50 [1] of 30 nM.

`COc1cccc(CNC(=O)c2cc(C(=O)NCc3ccc(NC(=O)NC(=O)c4ccccc4)cc3)ncn2)c1` [Example 147] was tested, and the IC50 [1] was 3 nM.

`COc1cccc(CNC(=O)c2cc(C(=O)NCc3ccc(C(=O)NC(C)(C)C)cc3)ncn2)c1` [Example 96] gave an IC50 [1] of 50 nM.

Work on `COc1cccc(CNC(=O)c2cc(C(=O)NCc3cccc(NC(=O)OC(C)C)c3)ncn2)c1` [Example 150] yielded an IC50 [1] of 80 nM.

`COc1cccc(CNC(=O)c2cc(C(=O)NCc3ccc(C(=O)N4CCN(C)CC4)cc3)ncn2)c1` [Example 114] gave an IC50 [1] of 50 nM.

Work on `COc1cccc(CNC(=O)c2cc(C(=O)NCc3ccc(C(=O)N4CCN(c5ccncc5)CC4)cc3)ncn2)c1` [Example 115] yielded an IC50 [1] of 20 nM.

With `O=C(NCc1ccc(OCCN2CCOCC2)cc1)c1cc(C(=O)NCc2ccc3c(c2)CCO3)ncn1` [Example 135] the IC50 [1] was 20 nM.

`CS(=O)(=O)NC(=O)Nc1ccc(CNC(=O)c2cc(C(=O)NCc3ccc(F)c(Cl)c3)ncn2)cc1` [Example 63] showed an IC50 [1] of 9 nM.

`O=C(NCc1ccc(C(=O)N2CCC(O)CC2)cc1)c1cc(C(=O)NCc2ccc3c(c2)CCO3)ncn1` [Example 68] was tested, and the IC50 [1] was 22 nM.

`Cc1cc(CNC(=O)c2cc(C(=O)NCc3ccc(C(=O)N4CCSCC4)cc3)ncn2)ccc1F` [Example 70] gave an IC50 [1] of 24 nM.

Compound `CN1CCN(C(=O)c2ccc(CNC(=O)c3cc(C(=O)NCc4ccc5c(c4)CCO5)ncn3)cc2)CC1` [Example 119] has an IC50 [1] of 35 nM.

`COc1cccc(CNC(=O)c2cc(C(=O)NCc3ccc(NC(=O)OC(C)C)cc3)ncn2)c1` [Example 6] was tested, and the IC50 [1] was 20 nM.

`COc1cccc(CNC(=O)c2cc(C(=O)NCc3ccc(C(=O)N4CCNC(=O)C4)cc3)ncn2)c1` [Example 73] was tested, and the IC50 [1] was 25 nM.

With `COc1cccc(CNC(=O)c2cc(C(=O)NCc3ccc(NC(=O)NS(=O)(=O)c4ccc(C)cc4)cc3)ncn2)c1` [Example 118] the IC50 [1] was 2.4 nM.

`O=C1CCN(C(=O)c2ccc(CNC(=O)c3cc(C(=O)NCc4ccc5c(c4)CCO5)ncn3)cc2)CC1` [Example 66] showed an IC50 of 10 nM.

With `COc1cccc(CNC(=O)c2cc(C(=O)NCc3ccc(C(=O)N4CCC(O)CC4)cc3)ncn2)c1` [Example 67] the IC50 [1] was 15 nM.

With `O=C(NCc1ccc(C(=O)N2CCOCC2)cc1)c1cc(C(=O)NCc2ccc3c(c2)CCO3)ncn1` [Example 5, Pyrimidine-4,6-dicarboxylic acid 4-[(2,3-dihydrobenzofuran-5-ylmethyl)amide]6-[4-(morpholine-4-carbonyl)benzylamide]] the IC50 [1] was 8 nM.

Work on `O=C(NCc1ccc(C(=O)N2CCOCC2)cc1)c1cc(C(=O)NCc2ccc(F)c(Cl)c2)ncn1` [Example 154] yielded an IC50 [1] of 22 nM.

Compound `COc1cccc(CNC(=O)c2cc(C(=O)NCc3ccc(C(=O)NCCN4CCOCC4)cc3)ncn2)c1` [Example 36] has an IC50 [1] of 10 nM.

In the case of `Cc1cc(CNC(=O)c2cc(C(=O)NCc3ccc(C(=O)NC#N)cc3)ncn2)ccc1F` [Example 78], the IC50 [1] is reported as 3 nM.

`COc1cccc(CNC(=O)c2cc(C(=O)NCc3ccc(NC(=O)NS(C)(=O)=O)cc3)ncn2)c1` [Example 101] showed an IC50 [1] of 2 nM.

Compound `COc1cccc(CNC(=O)c2cc(C(=O)NCc3ccc(NC(=O)NC4CCCCC4)cc3)ncn2)c1` [Example 136] has an IC50 [1] of 20 nM.

Compound `O=C1CN(C(=O)c2ccc(CNC(=O)c3cc(C(=O)NCc4ccc5c(c4)CCO5)ncn3)cc2)CCN1` [Example 74] has an IC50 [1] of 30 nM.

For `Cc1cc(CNC(=O)c2cc(C(=O)NCc3ccc(C(=O)NCCN4CCCC4)cc3)ncn2)ccc1F` [Example 99], the IC50 [1] was 50 nM.

`O=C(NCc1ccc2c(c1)CCO2)c1cc(C(=O)NCc2cc(Cl)cs2)ncn1` [Example 129] gave an IC50 [1] of 22 nM.

`O=C(NCc1ccc(C(=O)N2CCSCC2)cc1)c1cc(C(=O)NCc2ccc3c(c2)CCO3)ncn1` [Example 72] gave an IC50 [1] of 10 nM.

Work on `O=C(O)CNC(=O)c1ccc(CNC(=O)c2cc(C(=O)NCc3ccc4c(c3)CCO4)ncn2)cc1` [Example 98] yielded an IC50 [1] of 20 nM.

With `Cc1cc(CNC(=O)c2cc(C(=O)NCc3ccc(C(=O)N4CCC(=O)CC4)cc3)ncn2)ccc1F` [Example 65] the IC50 was 15 nM.

`Cc1cc(CNC(=O)c2cc(C(=O)NCc3ccc(NC(=O)NS(C)(=O)=O)cc3)ncn2)ccc1F` [Example 83] showed an IC50 [1] of 5 nM.

With `COc1cccc(CNC(=O)c2cc(C(=O)NCc3ccc(C(=O)N4CCOCC4)cc3)ncn2)c1` [Example 151] the IC50 [1] was 9 nM.

Compound `COc1cccc(CNC(=O)c2cc(C(=O)NCc3ccc(NC(=O)NS(=O)(=O)c4ccccc4)cc3)ncn2)c1` [Example 121] has an IC50 [1] of 30 nM.

`O=C(NO)c1ccc(CNC(=O)c2cc(C(=O)NCc3ccc4c(c3)CCO4)ncn2)cc1` [Example 94] showed an IC50 [1] of 20 nM.

In the case of `COc1cccc(CNC(=O)c2cc(C(=O)NCc3ccc(NC(=O)NC(C)(C)C)cc3)ncn2)c1` [Example 138], the IC50 [1] is reported as 50 nM.

Work on `COc1cccc(CNC(=O)c2cc(C(=O)NCc3ccc(NC(=O)NC(=O)c4cccnc4)cc3)ncn2)c1` [Example 126] yielded an IC50 [1] of 2.3 nM.

For `C#CCOC(=O)Nc1ccc(CNC(=O)c2cc(C(=O)NCc3cccc(OC)c3)ncn2)cc1` [Example 144], the IC50 [1] was 9 nM.

For `Cc1cc(CNC(=O)c2cc(C(=O)NCc3ccc(C(=O)NCCO)cc3)ncn2)ccc1F` [Example 76], the IC50 [1] was 23 nM.

Work on `Cc1cc(CNC(=O)c2cc(C(=O)NCc3ccc(C(=O)N4CCNC(=O)C4)cc3)ncn2)ccc1F` [Example 75] yielded an IC50 [1] of 70 nM.

For `COc1cccc(CNC(=O)c2cc(C(=O)NCc3ccc(C(=O)NO)cc3)ncn2)c1` [Example 89], the IC50 [1] was 18 nM.

With `CC#CCOC(=O)Nc1ccc(CNC(=O)c2cc(C(=O)NCc3cccc(OC)c3)ncn2)cc1` [Example 139] the IC50 [1] was 10 nM.

With `Cc1cc(CNC(=O)c2cc(C(=O)NCc3ccc(C(=O)N4CCOCC4)cc3)ncn2)ccc1F` [Example 87] the IC50 [1] was 24 nM.

`CCCNC(=O)c1ccc(CNC(=O)c2cc(C(=O)NCc3cccc(OC)c3)ncn2)cc1` [Example 62] gave an IC50 [1] of 13 nM.

Work on `COc1cccc(CNC(=O)c2cc(C(=O)NCc3ccc(NC(=O)CN4CCCC4)cc3)ncn2)c1` [Example 128] yielded an IC50 [1] of 60 nM.

`O=C(NCc1ccc2c(c1)CCO2)c1cc(C(=O)NCc2cccs2)ncn1` [Example 39] was tested, and the IC50 [1] was 30 nM.

Work on `COc1cccc(CNC(=O)c2cc(C(=O)NCc3ccc(C(=O)NC4CCNCC4)cc3)ncn2)c1` [Example 109] yielded an IC50 [1] of 50 nM.

In the case of `Cc1cc(CNC(=O)c2cc(C(=O)NCc3ccc(C(=O)NCCN4CCOCC4)cc3)ncn2)ccc1F` [Example 105], the IC50 [1] is reported as 23 nM.

Work on `CCN(CC)C(=O)c1ccc(CNC(=O)c2cc(C(=O)NCc3ccc(F)c(Cl)c3)ncn2)cc1` [Example 153] yielded an IC50 [1] of 15 nM.

Work on `Cc1cc(CNC(=O)c2cc(C(=O)NCc3ccc(C(=O)N4CCC(O)CC4)cc3)ncn2)ccc1F` [Example 69] yielded an IC50 [1] of 32 nM.

In the case of `O=C(NCCN1CCOCC1)c1ccc(CNC(=O)c2cc(C(=O)NCc3ccc4c(c3)CCO4)ncn2)cc1` [Example 122], the IC50 [1] is reported as 43 nM.

Work on `COc1cccc(CNC(=O)c2cc(C(=O)NCc3ccc(C(=O)N4CCC(=O)CC4)cc3)ncn2)c1` [Example 64] yielded an IC50 of 10 nM.
